The values below come from patent EP1304119A2, “Method for preventing and treating hearing loss using a neurturin protein product” (Amgen Inc., priority 1997, dated 1999).

Data set [1] has as its system cochlear hair cells. The data set is described as follows: Organ of Corti (cochlea) explant culture, hair cell survival after neomycin exposure (FITC-phalloidin count). The format is cell-based, rat. As to conditions: for Hair cell survival (% of untreated): Neomycin alone (0.6 mM), added 24 hours after plating, 3 days exposure, mean ± SD, 4320 min, 600 µM. From the text: • 1. Neomycin solution (Cat. #N1142, Sigma. St. […] Cat. #X-100, Sigma. St. Louis, MO) • 4. Phalloidin (FITC Labeled. Cat. #P-5282, Sigma. St. Louis, MO) • 5. Vectashield (Mounting Medium, Cat. #H-1000, Vector, Burlingame, CA)
Organ of Corti explants were obtained from P3-P4 Wistar rats. Rats were decapitated, the lower jaw was cut out and skin removed. The temporal bone was collected in dissection solution, the otic capsule exposed and the bony-cartilaginous cochlear capsule was carefully separated from the temporal bone. Freed cochlea were transferred to another Petri dish with dissection solution for further dissection. Intact organs of Corti were obtained by using a fine forceps to hold central VIII nerve tissue and remove it out, then the stria vascular membrane was carefully stripped off, starting from the apex or base. The organ of Corti was then transferred to a 35-mm diameter Petri dish containing cold PBS supplemented with glucose and ready to be cultured.
Cochlea explants were cultured in uncoated 96 well microplates. A single organ of Corti was placed in a well and was kept floating in the medium.
Explants were kept in normal medium for 24 hours (90 µl/well). Neurturin protein solution (10 µl) was added to the 'treated' cultures, and 10 µl of medium were added to controls. After 24 hours of incubation, the media were changed and the explants were exposed to ototoxin-containing medium (90 µl), with neurturin protein solution (10µl) or without (control). The cultures were incubated for an additional 3 days. […]
To identify and count hair cells in the organ of Corti, a direct immunostaining method was used to label the actin present naturally in the stereocilia bundles of the hair cells. […] The explants were . observed under a Nikon Diaphot-300 inverted fluorescence microscope, using FITC filters and fluorescence optics.
For each experimental point, 2 to 4 cochlea were used. In each cochlea, the number of hair cells was counted in 2-3 section, […] in length each. Only the sections in the middle turn of the cochlea were analyzed. […]

Data set [2] has as its system cochlear hair cells. Nature of the data set: In vivo hair cell loss after cisplatin, neurturin infused into the inner ear by mini-pump. Further details: species or system guinea pigs. Conditions: cisplatin 7.5 mg/kg twice. The protocol:
The following example describes the inner ear administration of neurturin protein product to protect cochlear hair cells against ototoxicity in an animal model. The neurturin protein product is introduced into the inner ear via a cannula pushed into the scala tympani through a hole drilled in the basal turn of the cochlea. The cannula is connected to an Alzet mini-pump loaded with neurturin protein product (50 ng/ml) at a releasing rate of 0.5 µl/hour for 14 days. […] The experiment is terminated after 27 days. The hair cells are stained with FITC-phalloidin, and their number is determined in the middle turn of the cochlea (in at least 20% of the middle turn part). The results are expressed as the percent of hair cells lost for each individual guinea pig for the neurturin protein product treated ear (right ear) and the untreated ear (left ear).
The loading of a pump with methylene dye is done by holding the pump in a vertical position. A dye-loaded syringe is inserted completely into the pump, and the dye is injected until the pump overflowed. Injection of any air bubbles into the pump is avoided. A short piece of sterile V/4 tubing is placed onto the Flow Moderator. Neurturin protein product is loaded at a concentration of 50 ng/ml in PBS + 0.1% BSA, in a total volume of 230 µl, to within about 10 mm of the cannula tip, using a syringe connected with V/4 tubing. […]

The test system of data set [3] is cochlear hair cells. The data set is described as follows: Organ of Corti (cochlea) explant culture, hair cell survival after cisplatin exposure (FITC-phalloidin count). In kind it is cell-based, rat. As to conditions: cisplatin treatment alone.
Text: Triton X-100 (t-Octylphenoxypoly-ethoxyethanol. Cat. #X-100, Sigma. St. Louis, MO) • 4. Phalloidin (FITC Labeled. Cat. #P-5282, Sigma. St. Louis, MO) • 5. Vectashield (Mounting Medium, Cat. #H-1000, Vector, Burlingame, CA)
Organ of Corti explants were obtained from P3-P4 Wistar rats. Rats were decapitated, the lower jaw was cut out and skin removed. The temporal bone was collected in dissection solution, the otic capsule exposed and the bony-cartilaginous cochlear capsule was carefully separated from the temporal bone. Freed cochlea were transferred to another Petri dish with dissection solution for further dissection. […] The organ of Corti was then transferred to a 35-mm diameter Petri dish containing cold PBS supplemented with glucose and ready to be cultured. […]
For each experimental point, 2 to 4 cochlea were used. In each cochlea, the number of hair cells was counted in 2-3 section, 175 mm in length each. Only the sections in the middle turn of the cochlea were analyzed. […]

As for Neomycin, the “Hair cell survival (% of untreated)” value in the data set with cochlear hair cells [1] is recorded as 5.9 ± 4.7 n=23%; in the data set on cochlear hair cells [1] (listed as neomycin) it was 6%. Moreover, the “morphology of the organs of Corti (four-row structure)” value with cochlear hair cells [1] (neomycin treatment alone, spared hair cells) is “still organized in the typical four row structure”.
With `N.N.[Cl][Pt][Cl]` [Cisplatin], the “loss of hair cells in the left ear (untreated ear)” value in the data set on cochlear hair cells [2] was “approximately 40%”. Further, the “morphology of the organs of Corti (four-row structure)” value with cochlear hair cells [3] is listed as “caused a marked disruption of the four-row-structure”.
